Values quoted from earlier work, collected in patent publication US20240260569A1, “DISINFECTANT LIQUID, PREPARATION METHOD THEREOF AND FILM LAYER” (Shanghai Anpas New Materials Science & Technology Co., Ltd., priority 2021, published 2024).
Read-outs that look alike come from different tables or passages of the source.

Assays:
[1] = aqueous solution
[2] = relative to hypochlorite ions

Compound: O=c1nc([O-])n(Cl)c(=O)n1Cl.[Na+] [Sodium dichloroisocyanurate]
- active chlorine loss ([1]; within a week): about 50%

Compound: OCl [sodium hypochlorite]
- pH of a 10% solution: around 12
- active chlorine loss ([1]; pH 9.4, after 14 days at 55° C.): 63%
- active chlorine loss ([1]; pH=8.7, after 14 days at 55° C.): 94%

Compound: OCl [hypochlorous acid]
- disinfection and sterilization ability versus hypochlorite ions [2]: 80 to 100 times
